{"source": "paper PMC10766984", "about": "“Josephin domain containing 2 (JOSD2) promotes lung cancer by inhibiting LKB1 (Liver kinase B1) activity” (Signal Transduction and Targeted Therapy, 2024)", "note": "Where a name gives a salt, the structure may show the parent alone.", "data": [{"biological_target": "T1, GST-JOSD2 (Homo sapiens, UniProt Q8TAC2)", "T1 sequence (Q8TAC2 1-188)": "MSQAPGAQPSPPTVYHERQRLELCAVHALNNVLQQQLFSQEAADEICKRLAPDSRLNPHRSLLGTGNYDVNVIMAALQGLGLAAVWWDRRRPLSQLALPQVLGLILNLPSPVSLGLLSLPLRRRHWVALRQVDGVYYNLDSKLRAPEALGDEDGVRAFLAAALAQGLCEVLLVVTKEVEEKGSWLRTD", "assay": "not given", "settings": "2 μM compound incubated with GST-JOSD2 at 37 °C for 30 min", "units": {"JOSD2 activity inhibition ratio": "%"}, "values": [{"compound": "O=C1C=CC(=O)c2c1nnn2Cc1cc(F)cc(Cl)c1", "note": "[HY032801]", "JOSD2 activity inhibition ratio": "−0.98"}, {"compound": "N#CSc1cc(SC#N)c(N)nc1N", "note": "[PR-619, reference compound]", "JOSD2 activity inhibition ratio": 42.70}]}, {"biological_target": "T1, GST-JOSD2", "assay": "not given", "settings": "compound concentration 2 μM; JOSD2 inhibitor screening, related to Fig. 7a", "units": {"JOSD2 Activity Inhibition (%)": "%"}, "values": [{"compound": "CN1C2=CC(=O)/C(=N\\NC(N)=O)C=C2CC1S(=O)(=O)[O-].[Na+]", "note": "(stereo not drawn) [AC-17 (Carbazochrome sodium sulfonate)]", "JOSD2 Activity Inhibition (%)": 9.85}, {"compound": "Cl.N=C(N)NN", "note": "[Aminoguanidine hydrochloride]", "JOSD2 Activity Inhibition (%)": -35.00}, {"compound": "CCO/N=C1\\c2ccccc2-c2nc(C#N)c(C#N)nc21", "note": "[DUBs-IN-2]", "JOSD2 Activity Inhibition (%)": 5.01}, {"compound": "C=CCO/N=C1\\c2ccccc2-c2nc(C#N)c(C#N)nc21", "note": "[DUBs-IN-3]", "JOSD2 Activity Inhibition (%)": 14.15}, {"compound": "CC1(C)[C@@H](O[C@H]2O[C@H](C(=O)O)[C@@H](O)[C@H](O)[C@H]2O[C@@H]2O[C@H](C(=O)O)[C@@H](O)[C@H](O)[C@H]2O)CC[C@]2(C)[C@H]3C(=O)C=C4[C@@H]5C[C@@](C)(C(=O)O)CC[C@]5(C)CC[C@@]4(C)[C@]3(C)CC[C@@H]12.N.N", "note": "[Diammonium Glycyrrhizinate]", "JOSD2 Activity Inhibition (%)": -22.76}, {"compound": "CCCC(NC(=O)/C(C#N)=C/c1nc(Cl)ccc1Cl)c1ccc(OCCN2CCOCC2)cc1", "note": "(stereo not drawn) [EOAI3402143]", "JOSD2 Activity Inhibition (%)": 29.05}, {"compound": "CCc1c(-c2ccc3[nH]ncc3c2)cnc(N)c1-c1ccc(O)cc1", "note": "[GNE-6640]", "JOSD2 Activity Inhibition (%)": 12.54}, {"compound": "O=C(c1ccc(F)cc1)C1CCN(CCn2c(=O)[nH]c3ccccc3c2=O)CC1", "note": "[Ketaneserin]", "JOSD2 Activity Inhibition (%)": -29.69}, {"compound": "CC(=O)O/N=C1\\C(=O)N(Cc2cc(Cl)ccc2Cl)c2ccc(Cl)cc21", "note": "[LDN-57444]", "JOSD2 Activity Inhibition (%)": -16.75}, {"compound": "C[C@H]1C[C@@H]2[C@H]([C@@H](O)C[C@@]3(C)[C@H]2CC[C@]3(O)C(=O)COC(=O)CCC(=O)[O-])[C@@]2(C)C=CC(=O)C=C12.[Na+]", "note": "[Methylprodnisolone Sodium Succinate]", "JOSD2 Activity Inhibition (%)": -78.62}, {"compound": "N#CSc1cc(SC#N)c(N)nc1N", "note": "[PR-619, reference compound]", "JOSD2 Activity Inhibition (%)": 42.70}, {"compound": "C[C@]12C=CC(=O)C=C1CC[C@@H]1[C@@H]2[C@@H](O)C[C@@]2(C)[C@H]1CC[C@]2(O)C(=O)COP(=O)([O-])[O-].[Na+].[Na+]", "note": "[Prednisolone phosphate sodium]", "JOSD2 Activity Inhibition (%)": 36.74}, {"compound": "O=C1c2ccccc2C(=O)c2oc(-c3ccccc3)nc21", "note": "[SJB2-043]", "JOSD2 Activity Inhibition (%)": 13.43}, {"compound": "O=C1c2ccccc2C(=O)c2oc(-c3cccnc3)nc21", "note": "[SJB3-019A]", "JOSD2 Activity Inhibition (%)": 42.78}, {"compound": "O=C(CCc1ccccc1)N1CCC(O)(Cn2cnc3cc(Cl)ccc3c2=O)CC1", "note": "[USP7-IN-1]", "JOSD2 Activity Inhibition (%)": -29.77}, {"compound": "O=C1/C(=C/c2ccc([N+](=O)[O-])cc2)CS(=O)(=O)C/C1=C\\c1ccc([N+](=O)[O-])cc1", "note": "[Ubiquitin Isopeptidase Inhibitor I]", "JOSD2 Activity Inhibition (%)": 1.00}, {"compound": "C=CC(N)CCC(=O)O.Cl", "note": "(stereo not drawn) [Vigabatrin Hydrochloride]", "JOSD2 Activity Inhibition (%)": -16.37}, {"compound": "HBX 19818", "JOSD2 Activity Inhibition (%)": -0.37}, {"compound": "Tyloxapol", "JOSD2 Activity Inhibition (%)": 29.65}]}, {"biological_target": "T1, GST-JOSD2", "assay": "not given", "settings": "read-out: JOSD2 Activity Inhibition (%)", "units": {"inhibition at 2 µM": "%"}, "values": [{"compound": "CC(=O)OCC(=O)[C@@]12OC3(CCCC3)O[C@@H]1C[C@H]1[C@@H]3CCC4=CC(=O)C=C[C@]4(C)[C@@]3(F)[C@@H](O)C[C@@]12C", "note": "[Amcinonide]", "inhibition at 2 µM": -19.2}, {"compound": "CCOC(=O)C1=C(COCCN)NC(C)=C(C(=O)OC)C1c1ccccc1Cl", "note": "(stereo not drawn) [Amlodipine Besylate]", "inhibition at 2 µM": -24.3}, {"compound": "CCCCC(=O)O[C@]1(C(=O)CO)[C@@H](C)C[C@H]2[C@@H]3CCC4=CC(=O)C=C[C@]4(C)[C@@]3(F)[C@@H](O)C[C@@]21C", "note": "[Betamethasone 17-valerate]", "inhibition at 2 µM": -26}, {"compound": "C[C@]12CCC(=O)C=C1C=C[C@@H]1[C@@H]2CC[C@@]2(C)[C@H]1CC[C@@]21CCC(=O)O1", "note": "[Canrenone]", "inhibition at 2 µM": -22.3}, {"compound": "COc1cc(CNC(=O)CCCC/C=C/C(C)C)ccc1O", "note": "[Capsaicin]", "inhibition at 2 µM": 1.77}, {"compound": "COC(=O)[C@H](c1ccccc1Cl)N1CCc2sccc2C1", "note": "[Clopidogrel sulfate]", "inhibition at 2 µM": -15}, {"compound": "CN1C[C@H](C(=O)N[C@]2(C)O[C@@]3(O)[C@@H]4CCCN4C(=O)[C@H](Cc4ccccc4)N3C2=O)C=C2c3cccc4[nH]cc(c34)C[C@H]21", "note": "[Ergotamine bitartrate]", "inhibition at 2 µM": -5.18}, {"compound": "O=S(=O)(O)c1cc(O)ccc1O", "note": "[Etamsylate]", "inhibition at 2 µM": -21.4}, {"compound": "CC(C)(Sc1ccc(CCN(CCCCC2CCCCC2)C(=O)NC2CCCCC2)cc1)C(=O)O", "note": "[GW7647]", "inhibition at 2 µM": -29.7}, {"compound": "O=C1C=CC(=O)c2c1nnn2Cc1cc(F)cc(Cl)c1", "note": "[HY032801]", "inhibition at 2 µM": -0.98}, {"compound": "COc1ccc(O)cc1", "note": "[Leucobasal]", "inhibition at 2 µM": -15.3}, {"compound": "CC(=O)[C@H]1CC[C@H]2[C@@H]3C[C@H](C)C4=CC(=O)CC[C@]4(C)[C@H]3[C@@H](O)C[C@]12C", "note": "[Medrysone]", "inhibition at 2 µM": -8.83}, {"compound": "CC(C)(C(=O)c1cccnc1)c1cccnc1", "note": "[Metyrapone]", "inhibition at 2 µM": -6.94}, {"compound": "CCOC(=O)[N-]c1cn(N2CCOCC2)n[o+]1", "note": "[Molsidomine]", "inhibition at 2 µM": 35.8}, {"compound": "CC(CCc1ccccc1)NC(C)C(O)c1ccc(O)cc1", "note": "(stereo not drawn) [Nylidrin hydrochloride]", "inhibition at 2 µM": -31.9}, {"compound": "COc1ccc(Cc2nccc3cc(OC)c(OC)cc23)cc1OC", "note": "[Papaverine hydrochloride]", "inhibition at 2 µM": -27.9}, {"compound": "C#CCN(C)Cc1ccccc1", "note": "[Pargyline]", "inhibition at 2 µM": 29.8}, {"compound": "CCc1ccc(CCOc2ccc(CC3SC(=O)NC3=O)cc2)nc1", "note": "(stereo not drawn) [Pioglitazone hydrochloride]", "inhibition at 2 µM": -5}, {"compound": "CC(C(=O)O)c1ccc2c(c1)Cc1cccnc1O2", "note": "(stereo not drawn) [Pranoprofen]", "inhibition at 2 µM": -2.73}, {"compound": "CCN(CC)CCNC(=O)c1ccc(N)cc1", "note": "[Procainamide hydrochloride]", "inhibition at 2 µM": -20.4}, {"compound": "C#CCN[C@@H]1CCc2ccccc21", "note": "[Rasagiline]", "inhibition at 2 µM": 29}, {"compound": "O=P(O)(O)C(O)(Cc1cccnc1)P(=O)(O)O", "note": "[Risedronate Sodium]", "inhibition at 2 µM": 4.34}, {"compound": "CC(=O)OCC(=O)NCCCOc1cccc(CN2CCCCC2)c1", "note": "[Roxatidine Acetate hydrochloride]", "inhibition at 2 µM": -20.8}, {"compound": "CCCSc1nc(N[C@@H]2C[C@H]2c2ccc(F)c(F)c2)c2nnn([C@@H]3C[C@H](OCCO)[C@@H](O)[C@H]3O)c2n1", "note": "[Ticagrelor]", "inhibition at 2 µM": 23.1}]}, {"test_system": "LKB1-WT NSCLC cell lines", "assay": "Proliferation assay, panel of LKB1-WT cell lines", "assay_type": "cell-based", "settings": "indicated concentrations, 72 h", "procedure": "The indicated cell lines were treated with indicated compounds at a series of concentrations for 72 h, followed by cell proliferation assay and colony formation assay. Black dashed line indicates 50% of cell survival.\nFor cell proliferation assay, cells infected with lentiviruses packaged indicated plasmids were seeded indicated number cells per well in 96-well plates. Cell number (absorbance) was then estimated by the sulforhodamine B (SRB) (Sigma-Aldrich, #230162) assay and the absorbance of the individual wells was determined at the optical density of 515 nm. For colony formation assay, cells infected with lentiviruses packaged indicated plasmids were seeded indicated number cells per well in 6-well plates. Two weeks later, cells were stained with SRB and the numbers of colonies having more than 50 cells were counted.", "values": [{"compound": "O=C1C=CC(=O)c2c1nnn2Cc1cc(F)cc(Cl)c1", "note": "[HY032801]", "Cell viability / cell proliferation": "failed to inhibit cell proliferation"}]}, {"test_system": "PDX LUAD 083120 (Case 2)", "assay": "Patient-derived xenograft study, intratumor JOSD2 shRNA", "assay_type": "in vivo, BALB/c-Nude mice", "settings": "not given", "procedure": "(§1) PDXs were established in our lab using female BALB/c-Nude mice (4-5 weeks) implanted with tumor tissues from patients undergoing surgeries. […] Once tumors reached approximately 50 mm^3 in volume, mice were randomly assigned to scramble control or JOSD2 shRNA intra-tumor injection treatment. For the intratumor injection, a mice received an intratumorally injection of 5 ×10^6 lentiviruses in 20 μL sterile saline solution every two days.", "units": {"Inhibition ratio": "%", "T/C": "%"}, "values": [{"compound": "shJOSD2#1: gene-specific shRNA targeting JOSD2, GCAACTATGATGTCAATGTGA, delivered by lentiviral vector (lentiviral shRNA)", "Inhibition ratio": 52.24, "T/C": 64.34}]}, {"test_system": "PDX LUAD 083120 (Case 2)", "assay": "Patient-derived xenograft study, intratumor JOSD2 shRNA", "assay_type": "in vivo, BALB/c-Nude mice", "settings": "at the endpoint", "procedure": "as §1", "units": {"Tumor Weight": "g"}, "values": [{"compound": "shJOSD2#1: gene-specific shRNA targeting JOSD2, GCAACTATGATGTCAATGTGA, delivered by lentiviral vector (lentiviral shRNA)", "Tumor Weight": "0.08 ± 0.02"}]}, {"test_system": "PDX LUAD 083120 (Case 2)", "assay": "Patient-derived xenograft study, intratumor JOSD2 shRNA", "assay_type": "in vivo, BALB/c-Nude mice", "settings": "intratumor injection", "procedure": "as §1", "values": [{"compound": "shJOSD2#1: gene-specific shRNA targeting JOSD2, GCAACTATGATGTCAATGTGA, delivered by lentiviral vector (lentiviral shRNA)", "RTV": "2.73 ± 0.63"}]}, {"test_system": "PDX LUAD 110519 (Case 1)", "assay": "Patient-derived xenograft study, intratumor JOSD2 shRNA", "assay_type": "in vivo, BALB/c-Nude mice", "settings": "not given", "procedure": "as §1", "units": {"Inhibition ratio": "%", "T/C": "%"}, "values": [{"compound": "shJOSD2#1: gene-specific shRNA targeting JOSD2, GCAACTATGATGTCAATGTGA, delivered by lentiviral vector (lentiviral shRNA)", "Inhibition ratio": 64.73, "T/C": 37.84}]}, {"test_system": "PDX LUAD 110519 (Case 1)", "assay": "Patient-derived xenograft study, intratumor JOSD2 shRNA", "assay_type": "in vivo, BALB/c-Nude mice", "settings": "at the endpoint", "procedure": "as §1", "units": {"Tumor Weight": "g"}, "values": [{"compound": "shJOSD2#1: gene-specific shRNA targeting JOSD2, GCAACTATGATGTCAATGTGA, delivered by lentiviral vector (lentiviral shRNA)", "Tumor Weight": "0.14 ± 0.07"}]}, {"test_system": "PDX LUAD 110519 (Case 1)", "assay": "Patient-derived xenograft study, intratumor JOSD2 shRNA", "assay_type": "in vivo, BALB/c-Nude mice", "settings": "intratumor injection", "procedure": "as §1", "values": [{"compound": "shJOSD2#1: gene-specific shRNA targeting JOSD2, GCAACTATGATGTCAATGTGA, delivered by lentiviral vector (lentiviral shRNA)", "RTV": "3.20 ± 1.37"}]}]}
